The source of these data is ChEMBL document CHEMBL4765470 (J Med Chem, 2021).

Non-standard residues stand in square brackets, D forms with d. Residues, ends and D or L forms follow the SMILES beside them. *: point of attachment. Ala(thiazol-5-yl) = N[C@@H](Cc1cncs1)C(=O)O; 2Nal = N[C@@H](Cc1ccc2ccccc2c1)C(=O)O; Tic = O=C(O)[C@@H]1Cc2ccccc2CN1; Nle = CCCC[C@H](N)C(=O)O; Aze = O=C(O)[C@@H]1CCN1; Ac3c = NC1(C(=O)O)CC1; Bn = c1ccc(C*)cc1 Bounds are passed on as bounds.

The term Ki denotes the dissociation constant of the complex between target and ligand, obtained from inhibition or displacement. Read a low Ki as higher affinity.

The assay addresses T1, Apelin receptor (Homo sapiens, UniProt P35414).
T1 sequence (P35414 whole entry): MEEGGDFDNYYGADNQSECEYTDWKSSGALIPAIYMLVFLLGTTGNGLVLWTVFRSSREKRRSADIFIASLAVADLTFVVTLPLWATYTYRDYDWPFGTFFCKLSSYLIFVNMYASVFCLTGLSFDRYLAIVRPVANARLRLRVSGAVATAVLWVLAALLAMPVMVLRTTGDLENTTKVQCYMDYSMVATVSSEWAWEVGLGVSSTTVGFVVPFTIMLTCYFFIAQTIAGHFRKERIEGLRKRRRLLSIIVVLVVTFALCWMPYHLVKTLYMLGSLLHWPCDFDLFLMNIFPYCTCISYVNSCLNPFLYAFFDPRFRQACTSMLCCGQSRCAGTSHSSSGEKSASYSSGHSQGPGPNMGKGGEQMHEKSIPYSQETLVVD
The assay is described as follows: Displacement of [125I] [NIe75, Tyr77]Pyr-apelin-13 from YFP-tagged human APJ receptor expressed in HEK293 cell membranes incubated for 1 hr by gamma counting based Cheng-Prusoff equation analysis. Background: Displacement assays read how much labelled ligand stays bound in the presence of the test substance.
Consider `CCCC[C@H](N)C(=O)N1CCC[C@H]1C(=O)N[C@@H](CC(C)C)C(=O)N[C@@H](Cc1cnc[nH]1)C(=O)N[C@@H](CO)C(=O)N[C@@H](CCCNC(=N)N)C(=O)N[C@H](C(=O)N1CCC[C@H]1C(=O)N[C@@H](Cc1ccc(OCc2ccccc2)cc1)C(=O)N1CCC[C@H]1C(=O)O)C(C)C` (H-[Nle]PLHSRVPY(Bn)P-OH), for which the Ki is over 10000 nM.

In turn, `CCCC[C@H](N)C(=O)N1CCC[C@H]1C(=O)N[C@@H](CC(C)C)C(=O)N[C@@H](Cc1ccccc1)C(=O)N[C@@H](CO)C(=O)N[C@@H](CCCNC(=N)N)C(=O)N[C@H](C(=O)N1CCC[C@H]1C(=O)N[C@@H](Cc1ccccc1)C(=O)N1CCC[C@H]1C(=O)O)C(C)C` (H-[Nle]PLFSRVPFP-OH) registered a Ki of over 10000 nM.

As for `CCCC[C@H](N)C(=O)N1CCC[C@H]1C(=O)N[C@@H](CC(C)C)C(=O)N[C@@H](Cc1cnc[nH]1)C(=O)N[C@@H](CO)C(=O)N[C@@H](CCCNC(=N)N)C(=O)N[C@H](C(=O)N1CC[C@H]1C(=O)N[C@@H](Cc1ccccc1)C(=O)O)C(C)C` (H-[Nle]PLHSRV[Aze]F-OH), affinity was put at a Ki of 159 nM.

In turn, `CCCC[C@H](N)C(=O)N1CCC[C@H]1C(=O)N[C@@H](CC(C)C)C(=O)N[C@@H](Cc1ccc2ccccc2c1)C(=O)N[C@@H](CO)C(=O)N[C@@H](CCCNC(=N)N)C(=O)N[C@H](C(=O)N1CCC[C@H]1C(=O)N[C@@H](Cc1ccccc1)C(=O)N1CCC[C@H]1C(=O)O)C(C)C` (H-[Nle]PL[2Nal]SRVPFP-OH) yielded a Ki of over 10000 nM.

Take `CCCC[C@H](N)C(=O)N1CCC[C@H]1C(=O)N[C@@H](CC(C)C)C(=O)N[C@@H](Cc1cnc[nH]1)C(=O)N[C@@H](CO)C(=O)N[C@@H](CCCNC(=N)N)C(=O)N[C@H](C(=O)N1CCC[C@H]1C(=O)N[C@@H](C)C(=O)N1CCC[C@H]1C(=O)O)C(C)C` (H-[Nle]PLHSRVPAP-OH): the Ki is over 10000 nM.

With `CCCC[C@H](N)C(=O)N1CCC[C@H]1C(=O)N[C@@H](CC(C)C)C(=O)N[C@@H](Cc1cnc[nH]1)C(=O)N[C@@H](CO)C(=O)N[C@@H](CCCNC(=N)N)C(=O)N[C@H](C(=O)NC1(C(=O)N[C@@H](Cc2ccccc2)C(=O)O)CC1)C(C)C` (H-[Nle]PLHSRV[Ac3c]F-OH), the Ki was over 10000 nM.

As to `CCCC[C@H](N)C(=O)N1CCC[C@H]1C(=O)N[C@@H](CC(C)C)C(=O)N[C@@H](Cc1cncs1)C(=O)N[C@@H](CO)C(=O)N[C@@H](CCCNC(=N)N)C(=O)N[C@H](C(=O)N1CCC[C@H]1C(=O)N[C@@H](Cc1ccccc1)C(=O)N1CCC[C@H]1C(=O)O)C(C)C` (H-[Nle]PL[Ala(thiazol-5-yl)]SRVPFP-OH), the Ki came to 71 nM.

Consider `CCCC[C@H](N)C(=O)N1CCC[C@H]1C(=O)N[C@@H](CC(C)C)C(=O)N[C@@H](Cc1cnc[nH]1)C(=O)N[C@@H](CO)C(=O)N[C@@H](CCCNC(=N)N)C(=O)NC1(C(=O)N2CCC[C@H]2C(=O)N[C@@H](Cc2ccccc2)C(=O)N2CCC[C@H]2C(=O)O)CC1` (H-[Nle]PLHSR[Ac3c]PFP-OH), for which the Ki is over 10000 nM.

Take `CCCC[C@H](N)C(=O)N1CCC[C@H]1C(=O)N[C@@H](CC(C)C)C(=O)N[C@@H](Cc1cnc[nH]1)C(=O)N[C@@H](CO)C(=O)N[C@@H](CCCNC(=N)N)C(=O)N[C@H](C(=O)N1CCC[C@H]1C(=O)N[C@@H](Cc1ccccc1)C(=O)N1Cc2ccccc2C[C@H]1C(=O)O)C(C)C` (H-[Nle]PLHSRVPF[Tic]-OH): the affinity, expressed as Ki, was 29 nM.

The compound `CCCC[C@H](N)C(=O)N1CCC[C@H]1C(=O)N[C@@H](CC(C)C)C(=O)N[C@@H](Cc1cnc[nH]1)C(=O)N[C@@H](CO)C(=O)N[C@@H](CCCNC(=N)N)C(=O)N[C@H](C(=O)N1CCC[C@H]1C(=O)N[C@@H](Cc1ccccc1)C(=O)O)C(C)C` (H-[Nle]PLHSRVPF-OH) showed a Ki of 128 nM.

As to `CCCC[C@H](N)C(=O)N1CCC[C@H]1C(=O)N[C@@H](CC(C)C)C(=O)N[C@@H](C)C(=O)N[C@@H](CO)C(=O)N[C@@H](CCCNC(=N)N)C(=O)N[C@H](C(=O)N1CCC[C@H]1C(=O)N[C@@H](Cc1ccccc1)C(=O)N1CCC[C@H]1C(=O)O)C(C)C` (H-[Nle]PLASRVPFP-OH), the Ki amounted to 1460 nM.
